Results taken from patent US9301945B2, “Methods for treating inflammatory conditions and states, and cancers by antagonizing NF-κB activation” (Emory University, priority 2011, dated 2016).
Entries after “also recorded” stand apart in the source; their conditions may differ.

Legend:
[1] = tested on: MC3T3 osteoblast precursors; experiment: Osteoblast differentiation / mineralization assay with Alizarin Red-S staining; format: cell-based, mouse; conditions: for osteoblast mineralization (calcium deposition, Alizarin Red-S): 200 μM, 17 days of culture, mineralizing medium, no TNFα
Procedure: (§1) The mouse preosteoblastic cell line MC3T3-E1, clone 14 (MC3T3) and the mouse monocytic cell line RAW264.7 were purchased from the Amerimay Type Culture Collection (Manassas, Va.) and cultured as described in, for example, Li et al. (2007) J Bone Miner Res 22(5): 646-655; and Yamaguchi et al. (2009) Int J Mol Med 24(5): 671-675.
For mineralization assays MC3T3 cells were plated in 12-well dishes at a density of 1.0×10^5 cells per well in mineralization medium (α-MEM supplemented with 10% FBS, L-ascorbic acid (100 μg/ml) and 4 mM β-glycerophosphate) as previously described in, for example, Li et al. (2007) J Bone Miner Res 22(5): 646-655; and Sugimoto et al. (2000) Int J Mol Med 5(5): 515-520. Strontium ranelate, sodium ranelate or strontium chloride were added at the indicated doses and cells replenished with fresh medium every 3 days. At 17-18 days of culture, cells were rinsed with PBS and calcium deposition was visualized by fixing the cells in 75% ethanol for 30 minutes at 4° C. followed by staining with Alizarin Red-S (40 mM, pH 6.2) for 30 minutes at room temperature. Excess stain was removed by copious washing with distilled water. Plates were imaged using a flatbed smayner (Epson Perfection 1660 Photo).
The mechanism by which strontium ranelate promotes osteoblast differentiation was investigated using an in vitro model. The in-vitro model used to investigate utilizes the MC3T3 mouse pre-osteoblast cell line that differentiates spontaneously into active osteoblasts within 21 days of culture in medium containing ascorbic acid and β-glycerophosphate (mineralizing medium).

[2] = tested on: TNFα-induced NF-κB activation in MC3T3 osteoblast precursors; experiment: NF-κB luciferase reporter assay in MC3T3 cells stimulated with TNFα; format: cell-based, mouse; conditions: 24 h
From the text: (§2) The NF-κB responsive reporter pNF-κB-Luc (BD Biosciences) and the Smad responsive reporter pGL3-Smad were used as previously described by in, for example, Li et al. (2007) J Bone Miner Res 22(5): 646-65. Briefly, reporter plasmids were transfected into MC3T3 or RAW264.7 cells (1×10^5 cells/well) using Lipofectamine 2000 reagent (Invitrogen) in α-MEM without FBS and antibiotics. Five hours later the medium was changed to α-MEM containing 10% FBS plus antibiotics and MC3T3 cells treated with TNFα (1 or 10 ng/ml as indicated) or RAW264.7 cells treated with RANKL (30 ng/ml) to stimulate NF-κB activity. In some experiments, Smad activity was induced in MC3T3 cells using TGFβ (1 ng/ml). Strontium ranelate, sodium ranelate or strontium chloride were added at the indicated doses. Cells were extracted with passive lysis buffer (Promega Corporation, Madison Wis.) 24 hours later, and luciferase activity was measured using the Luciferase Assay System of Promega, on a microplate luminometer (Turner Designs, Sunnyvale, Calif., USA).
A major mechanism by which TNFα mediates its suppressive action on osteoblasts is through NF-κB activation. See Li et al. (2007) J Bone Miner Res 22(5): 646-655; and Nanes (2003) Gene 321: 1-15.

[3] = tested on: RAW264.7 osteoclast precursors; experiment: Osteoclastogenesis assay with TRAP staining; format: cell-based, mouse; conditions: RANKL 30 ng/ml, 7 days
Procedure: as §1
RAW264.7 cells were cultured in 96-well plates in α-MEM supplemented with 10% FBS and 100 IU/ml penicillin, and 100 μg/ml streptomycin at a density of 1×10^4 cells/well. Cells were cultured for 6 days with RANKL ([…]) pre-incubated for 10 minutes with crosslinking anti-poly-histidine antibody (2.5 μg/ml), to induce osteoclast formation. Strontium ranelate, sodium ranelate or strontium chloride were added at the indicated doses. After 6 days of culture, the cells were fixed and stained for TRAP, a specific maker of the osteoclast phenotype, using a leukocyte acid phosphatase kit. TRAP+ cells with three or more nuclei were defined as osteoclasts and were quantitated under light microscopy, and normalized for cell size based on number of nuclei. Five wells per group were averaged. Representative wells were photographed under bright field microscopy using a Nikon Eclipse TE2000-S inverted microscope equipped with a digital camera (QImaging Corp., Burnaby, BC, Mayada).
To establish an in vitro osteoclastogenesis model suitable for investigation of strontium ranelate activity, the monocytic cell line RAW 264.7 was employed and differentiated into osteoclasts by addition of the key osteoclastogenic cytokine RANKL was induced. The effect of strontium ranelate on osteoclast differentiation was tested over a dose range from 1 μM to 200 μM and cultures were stained with TRAP 7 days later and osteoclast formation quantitated.

[4] = tested on: TGFβ-induced Smad activation in MC3T3 cells; experiment: Smad luciferase reporter assay in MC3T3 cells (TGFβ with or without TNFα); format: cell-based, mouse; conditions: 24 h; for direct effect on basal Smad activity: 500 μM; for effect on TNFα suppression of TGFβ-induced Smad activity: TGFβ 1 ng/ml, TNFα 1 ng/ml, concentrations of 100 μM and above
From the text: as §2
TGFβ is a potent early osteoblast precursor commitment and recruitment factor. See, e.g., See Janssens et al. (2005) Endocr Rev 26(6): 743-774; and Tang et al. (2009) Nat Med 15(7): 757-765. It has been reported that TNFα antagonizes TGFβ-induced Smad signaling in osteoblast precursors (see, e.g., Li et al. (2007) J Bone Miner Res 22(5): 646-655) and consequently investigated whether strontium ranelate may alleviate TNFα-induced suppression of TGFβ-induced Smad signaling in preosteoblasts. MC3T3 cells were transiently transfected with a Smad responsive luciferase reporter and Smad-induced transcription quantitated following stimulation by TGFβ.

[5] = tested on: RANKL-induced NF-κB activation in RAW264.7 osteoclast precursors; experiment: NF-κB luciferase reporter assay in RAW264.7 cells stimulated with RANKL; format: cell-based, mouse; conditions: RANKL 30 ng/ml, dose range 1 to 1000 μM, 24 h
From the text: as §2
See Caudrillier et al. (2010) Mol Pharmacol 78(4):569-576.

postmenopausal women = conditions: clinical trials; cited from earlier work
[6] = tested on: NF-κB nuclear translocation; conditions: reported by Caudrillier et al. (2010); cited from earlier work
[7] = in vitro osteoblast differentiation and mineralization assays

| Compound | osteoblast mineralization (calcium deposition, Alizarin Red-S) [1] | TNFα-induced NF-κB activity (luciferase) ([2]; TNFα 1 ng/ml, 200 μM) | RANKL-induced osteoclast formation (TRAP+ multinucleated cells) ([3]; 10 or 100 μM) | direct effect on basal Smad activity [4] | effect on TNFα suppression of TGFβ-induced Smad activity [4] | RANKL-induced NF-κB activity (luciferase) [5] | effect on TNFα suppression of basal mineralization ([1]; TNFα 5 ng/ml, 10 μM) | mineralization relative to basal levels in presence of TNFα ([1]; TNFα 5 ng/ml, 100 and 200 μM) | lowest dose achieving significant biological activities [1, 7] [μM] | saturating dose [1, 7] [µM] | TNFα-induced NF-κB activity (luciferase) ([2]; high TNFα 10 ng/ml, dose range 1 to 1000 μM) | TNFα-induced NF-κB activity (luciferase) ([2]; low TNFα 1 ng/ml, dose range 1 to 1000 μM) | RANKL-induced osteoclast formation (TRAP+ multinucleated cells) ([3]; 1 μM) | bone loss (postmenopausal women) | fracture risk (postmenopausal women) | RANKL-induced NF-κB nuclear translocation [6] | RANKL-induced NF-κB activity (luciferase) ([5]; listed as Strontium ranelate) |
| --- | --- | --- | --- | --- | --- | --- | --- | --- | --- | --- | --- | --- | --- | --- | --- | --- | --- |
| N#Cc1c(N(CC(=O)[O-])CC(=O)[O-])sc(C(=O)[O-])c1CC(=O)[O-].[Na+].[Na+].[Na+].[Na+] [sodium ranelate] | no stimulatory effects on osteoblast mineralization | completely ineffective | neither strontium chloride nor sodium ranelate had any effect on osteoclast formation | no direct effect on basal Smad activity | significantly relieved the suppressive effect of TNFα on TGFβ-induced Smad activity | – | – | – | – | – | – | – | – | – | – | – | – |
| [Cl-].[Cl-].[Sr+2] [strontium chloride] | no stimulatory effects on osteoblast mineralization | completely ineffective | neither strontium chloride nor sodium ranelate had any effect on osteoclast formation | – | – | no significant effect; also recorded: failed to suppress NF-κB activity | – | – | – | – | – | – | – | – | – | – | – |
| N#Cc1c(N(CC(=O)[O-])CC(=O)[O-])sc(C(=O)[O-])c1CC(=O)[O-].[Sr+2].[Sr+2] [strontium ranelate, distrontium salt of 2-[N,N-di(carboxymethyl)amino]-3-cyano-4-carboxymethylthiophene-5-carboxylic acid] | promote a robust osteoblast mineralization; also recorded: robust enhancement in mineralization | significantly suppressed TNFα-induced NF-κB activity | potently suppresses osteoclast formation at both doses | no direct effects on Smad activity | significantly alleviates the suppressive effect of TNFα on TGFβ-induced Smad activation | potently antagonize RANKL-induced NF-κB activation | completely reversed the suppressive effect of TNFα on basal mineralization | potently augmented mineralization over basal levels | 1 | 100 | dose dependently suppressed TNFα-induced NF-κB activity | dose dependently suppressed TNFα-induced NF-κB activity | significantly suppressed | protect against bone loss | reduce fracture risk | antagonize RANKL-induced NF-κB nuclear translocation | dose-dependently and significantly blunted RANKL-induced NF-κB activity |
